Assays:
Urotensin-2 receptor [1] = target: T1, Urotensin-2 receptor (Homo sapiens, UniProt Q9UKP6); experiment: Displacement of [125I]human urotensin 2 from human recombinant urotensin 2 receptor expressed in HEK293 cells; format: cell-based
T1 sequence (Q9UKP6 whole entry): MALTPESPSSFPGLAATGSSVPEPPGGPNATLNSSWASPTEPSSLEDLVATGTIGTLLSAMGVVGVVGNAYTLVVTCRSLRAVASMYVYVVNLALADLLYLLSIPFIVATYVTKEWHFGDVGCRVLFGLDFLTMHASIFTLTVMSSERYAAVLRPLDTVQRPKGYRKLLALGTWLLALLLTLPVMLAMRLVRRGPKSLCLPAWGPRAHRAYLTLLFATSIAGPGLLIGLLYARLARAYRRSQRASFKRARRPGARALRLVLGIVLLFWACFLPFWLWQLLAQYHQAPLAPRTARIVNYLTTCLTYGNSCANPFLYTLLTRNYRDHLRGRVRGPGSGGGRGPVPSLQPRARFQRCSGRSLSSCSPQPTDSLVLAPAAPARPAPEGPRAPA

Urotensin-2 receptor [2] = target: T1, Urotensin-2 receptor; experiment: Inhibition of human recombinant urotensin 2 receptor-mediated calcium mobilization expressed in HEK293 cells by FLIPR assay; format: functional, cell-based
Urotensin-2 receptor [3] = target: T1, Urotensin-2 receptor; experiment: Antagonist activity at human urotensin 2 receptor; format: functional; details: read-out: pA2 (converted)
[4] = Blockade of human urotensin 2-induced contraction in cat isolated femoral artery; format: functional, Felis catus
Urotensin-2 receptor [5] = target: T2, Urotensin-2 receptor (Rattus norvegicus, UniProt P49684); experiment: Displacement of [125I]human urotensin 2 from rat urotensin 2 receptor
T2 sequence (P49684 whole entry): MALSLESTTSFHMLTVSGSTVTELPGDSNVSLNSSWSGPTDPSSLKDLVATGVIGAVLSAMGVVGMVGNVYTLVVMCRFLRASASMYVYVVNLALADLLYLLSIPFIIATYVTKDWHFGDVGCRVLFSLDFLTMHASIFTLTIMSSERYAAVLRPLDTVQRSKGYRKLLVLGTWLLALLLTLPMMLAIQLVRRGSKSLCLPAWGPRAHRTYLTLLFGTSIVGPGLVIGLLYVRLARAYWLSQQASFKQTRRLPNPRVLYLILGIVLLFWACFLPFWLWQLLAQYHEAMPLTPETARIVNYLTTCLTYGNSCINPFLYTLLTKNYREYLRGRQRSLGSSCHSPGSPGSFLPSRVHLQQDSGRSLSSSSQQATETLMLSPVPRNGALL

Aorta = experiment: Blockade of human urotensin 2-induced contraction in rat isolated aorta; format: functional
[6] = Displacement of [125I]human urotensin 2 from cat urotensin 2 receptor; set-up: species or system Felis catus
[7] = Bioavailability in rat at 2.2 mg/kg, po; format: ADME, organism-based; details: in vivo
[8] = Volume of distribution at steady state in rat at 1.2 mg/kg, iv and 2.2 mg/kg, po; format: ADME, organism-based; details: in vivo, read-out: Vdss
Cytochrome P450 3A4 = Cytochrome P450 3A4 (Homo sapiens, UniProt P08684); experiment: Inhibition of CYP3A4; format: ADME
Sequence of Cytochrome P450 3A4 (P08684 whole entry): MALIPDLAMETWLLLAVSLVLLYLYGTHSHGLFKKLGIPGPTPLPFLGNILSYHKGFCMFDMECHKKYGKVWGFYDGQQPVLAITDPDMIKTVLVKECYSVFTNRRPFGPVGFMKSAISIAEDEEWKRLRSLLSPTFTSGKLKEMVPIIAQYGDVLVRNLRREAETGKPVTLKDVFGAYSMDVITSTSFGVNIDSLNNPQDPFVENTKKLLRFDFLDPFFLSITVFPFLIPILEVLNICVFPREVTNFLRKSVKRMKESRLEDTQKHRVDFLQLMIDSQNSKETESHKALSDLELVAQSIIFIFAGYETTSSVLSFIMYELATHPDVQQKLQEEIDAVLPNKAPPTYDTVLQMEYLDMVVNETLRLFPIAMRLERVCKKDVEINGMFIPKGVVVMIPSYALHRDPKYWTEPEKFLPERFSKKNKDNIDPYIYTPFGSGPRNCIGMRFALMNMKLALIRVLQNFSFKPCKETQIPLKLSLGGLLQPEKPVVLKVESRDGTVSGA

[9] = Clearance in rat at 1.2 mg/kg, iv and 2.2 mg/kg, po; format: ADME, organism-based; details: in vivo
Cytochrome P450 2D6 = Cytochrome P450 2D6 (Homo sapiens, UniProt P10635); experiment: Inhibition of CYP2D6; format: ADME
Sequence of Cytochrome P450 2D6 (P10635 whole entry): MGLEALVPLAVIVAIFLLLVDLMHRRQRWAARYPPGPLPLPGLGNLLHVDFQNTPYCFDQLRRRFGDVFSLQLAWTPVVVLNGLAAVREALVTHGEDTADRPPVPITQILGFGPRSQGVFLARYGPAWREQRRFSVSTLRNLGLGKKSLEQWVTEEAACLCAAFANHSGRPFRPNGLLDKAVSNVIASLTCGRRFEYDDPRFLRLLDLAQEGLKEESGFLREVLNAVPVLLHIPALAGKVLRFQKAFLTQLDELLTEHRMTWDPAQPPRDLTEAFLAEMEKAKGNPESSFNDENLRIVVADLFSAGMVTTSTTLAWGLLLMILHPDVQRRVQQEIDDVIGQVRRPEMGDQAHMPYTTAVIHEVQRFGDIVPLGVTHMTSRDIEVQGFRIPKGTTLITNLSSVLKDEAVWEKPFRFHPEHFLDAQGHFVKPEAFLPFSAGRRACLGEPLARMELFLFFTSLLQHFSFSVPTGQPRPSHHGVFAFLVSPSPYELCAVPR

[10] = Half life in rat at 1.2 mg/kg, iv and 2.2 mg/kg, po; format: ADME, organism-based; details: in vivo

| Compound | Ki (Urotensin-2 receptor [1]) | also measured |
| --- | --- | --- |
| CN(CC(=O)N1CCC[C@H](c2ccccc2)[C@@H]1CN1CCCC1)Cc1ccc(Cl)c(Cl)c1 | 3980 nM | – |
| COc1cccc(N(C)CC(=O)N2CCC[C@H](c3ccccc3)[C@@H]2CN2CCCC2)c1 | 794 nM | – |
| Cc1cccc(N(C)CC(=O)N2CCC[C@H](c3ccccc3)[C@@H]2CN2CCCC2)c1 | 398 nM | – |
| CN(CC(=O)N1CCC[C@@H](c2ccccc2)[C@H]1CN1CCCC1)c1ccc(Cl)c(Cl)c1 | 1580 nM | – |
| CN(CC(=O)N1CCCCC1CN1CCCC1)c1ccc(Cl)c(Cl)c1 (stereo unspecified) | 398 nM | IC50 (Urotensin-2 receptor [2]): 631 nM |
| O=C(Cc1csc2ccc(Cl)cc12)N1CCCCC1CN1CCCC1 (stereo unspecified) | 501 nM | – |
| O=C(Cc1csc2ccc(Cl)cc12)N1CCCCC1CN1CCCCC1 (stereo unspecified) | 7940 nM | – |
| O=C(Cc1c[nH]c2ccc(Br)cc12)N1CCC[C@H](c2ccccc2)[C@@H]1CN1CCCC1 | 631 nM | – |
| Cc1ccc2scc(CC(=O)N3CCC[C@H](c4ccccc4)[C@@H]3CN3CCCC3)c2c1 | 15.8 nM | – |
| CC(=O)N(CC(=O)N1CCC[C@H](c2ccccc2)[C@@H]1CN1CCCC1)c1ccc(Cl)c(Cl)c1 | 1580 nM | – |
| CCN(CC(=O)N1CCC[C@H](c2ccccc2)[C@@H]1CN1CCCC1)c1ccc(Cl)c(Cl)c1 | 31.6 nM | – |
| CN(CC(=O)N1CCC[C@H](c2ccccc2)[C@@H]1CN1CCCC1)c1cccc(Cl)c1 | 79.4 nM | – |
| CS(=O)(=O)N(CC(=O)N1CCC[C@H](c2ccccc2)[C@@H]1CN1CCCC1)c1ccc(Cl)c(Cl)c1 | 79.4 nM | – |
| O=C(CN(CC1CC1)c1ccc(Cl)c(Cl)c1)N1CCC[C@H](c2ccccc2)[C@@H]1CN1CCCC1 | 50.1 nM | – |
| Cc1ccc(N(C)CC(=O)N2CCC[C@H](c3ccccc3)[C@@H]2CN2CCCC2)cc1C | 200 nM | – |
| CN(CC(=O)N1CCC[C@H](c2ccccc2)[C@@H]1CN1CCCC1)c1cccc(C(F)(F)F)c1 | 100 nM | – |
| CN(CC(=O)N1CCC[C@H](c2ccccc2)[C@@H]1CN1CCCC1)c1ccc(Cl)cc1 | 501 nM | – |
| O=C(Cc1ccc2ccccc2c1)N1CCC[C@H](c2ccccc2)[C@@H]1CN1CCCC1 | 7940 nM | – |
| O=C(CNc1ccc(Cl)c(Cl)c1)N1CCC[C@H](c2ccccc2)[C@@H]1CN1CCCC1 | 63.1 nM | – |
| O=C(Cc1csc2ccc(Cl)cc12)N1CCC[C@@H](c2ccccc2)[C@H]1CN1CCCC1 | 1000 nM | – |
| O=C(Cc1csc2ccc(Cl)cc12)N1CCOCC1CN1CCCC1 (stereo unspecified) | 794 nM | – |
| O=C(Cc1csc2ccccc12)N1CCC[C@H](c2ccccc2)[C@@H]1CN1CCCC1 | 251 nM | – |
| O=C(Cc1csc2ccc(Cl)cc12)N1CCCCCC1CN1CCCC1 (stereo unspecified) | 2000 nM | – |

| Compound | Ki (Urotensin-2 receptor [1]) | also measured |
| --- | --- | --- |
| CN1CCN(CC2CCCCN2C(=O)Cc2csc3ccc(Cl)cc23)CC1 (stereo unspecified) | > 7940 nM | – |
| O=C(c1cccc2ccccc12)N1CCC[C@H](c2ccccc2)[C@@H]1CN1CCCC1 | > 7940 nM | – |
| CCN(CC)CC1CCCCN1C(=O)Cc1csc2ccc(Cl)cc12 (stereo unspecified) | > 7940 nM | – |
| O=C(Cc1ccsc1)N1CCC[C@H](c2ccccc2)[C@@H]1CN1CCCC1 | > 7940 nM | – |
| O=C(Cc1cccc2ccccc12)N1CCC[C@H](c2ccccc2)[C@@H]1CN1CCCC1 | 79.4 nM | – |
| O=C(Cc1ccc(Cl)c(Cl)c1)N1CCC[C@H](c2ccccc2)[C@@H]1CN1CCCC1 | 2510 nM | – |
| O=C(Cc1csc2ccc(Cl)cc12)N1CCCC1CN1CCCC1 (stereo unspecified) | > 7940 nM | – |
| O=C(Cc1csc2ccc(Br)cc12)N1CCC[C@H](c2ccccc2)[C@@H]1CN1CCCC1 | 7.94 nM | – |
| O=C(Cc1csc2ccc(Cl)cc12)N1CCC[C@H](c2ccccc2)[C@@H]1CN1CCCC1 | 3.98 nM | Kb (Urotensin-2 receptor [3]): 10 nM; pKb [4]: 7.2; Ki (Urotensin-2 receptor [5]): 10 nM; pKb (Aorta): 7.7; Log Ki [6]: -8 |
| CN(CC(=O)N1CCC[C@H](c2ccccc2)[C@@H]1CN1CCCC1)c1ccccc1Cl | 794 nM | – |
| Cc1ccc2scc(CCC(=O)N3CCC[C@H](c4ccccc4)[C@@H]3CN3CCCC3)c2c1 | 3160 nM | – |
| CN(CC(=O)N1CCC[C@H](c2ccccc2)[C@@H]1CN1CCCC1)c1ccc2ccccc2c1 | 158 nM | – |
| CN(CC(=O)N1CCC[C@H](c2ccccc2)[C@@H]1CN1CCCC1)c1ccccc1 | 3160 nM | – |
| O=C(Cc1csc2ccc(Cl)cc12)N1CCCCC1CN1CCOCC1 (stereo unspecified) | 1260 nM | – |
| CCCO[C@H]1CCCN(C(=O)Cc2csc3ccc(Cl)cc23)[C@H]1CN1CCCC1 (relative stereo) | 31.6 nM | – |
| O=C(Cc1csc2ccc(Cl)cc12)N1C[C@H](c2ccccc2)CC[C@H]1CN1CCCC1 (relative stereo) | 31.6 nM | – |
| O=C(Cc1csc2ccc(Cl)cc12)N1CC[C@H](c2ccccc2)C[C@@H]1CN1CCCC1 (relative stereo) | 200 nM | – |
| O=C(Cc1csc2ccc(Cl)cc12)N1CCC[C@H](C2CCCCC2)[C@@H]1CN1CCCC1 (relative stereo) | 25.1 nM | – |
| C[C@H]1CCCN(C(=O)Cc2csc3ccc(Cl)cc23)[C@H]1CN1CCCC1 (relative stereo) | 200 nM | – |
| O=C(Cc1csc2ccc(Cl)cc12)N1CCC[C@H](c2ccccc2)[C@@H]1CN1CCCC1 (relative stereo) | 7.94 nM | – |
| CN(CC(=O)N1CCC[C@H](c2ccccc2)[C@@H]1CN1CCCC1)c1ccc(Cl)c(Cl)c1 (stereo in doubt; 10b) | 15.8 nM | bioavailability [7]: 0%; Vd [8]: 23 L/kg; IC50 (Cytochrome P450 3A4): 1400 nM; clearance [9]: 97 mL/min/kg; IC50 (Cytochrome P450 2D6): 800 nM; half-life [10]: 3.8 h |
| CN(CC(=O)N1CCC[C@H](c2ccccc2)[C@@H]1CN1CCCC1)c1ccc(Cl)c(Cl)c1 (stereo in doubt; 11a) | 6.31 nM | pKb [4]: 7.2; Ki (Urotensin-2 receptor [5]): 6.31 nM; pKb (Aorta): 7.9; Log Ki [6]: -8.1 |
